Data as given in patent US4918077A, “3-phenyl-5,6-dihydrobenz(c)acridine-7-carboxylic acids and related compounds as cancer chemotherapeutic agents” (E. I. Du Pont de Nemours & Co., Inc., priority 1989, dated 1990).
In brackets after ≈: the same amount, converted by molar mass.

Assays:
L1210 leukemia = test: L1210 Murine Leukemia Test; assay type: in vivo, mouse; details: intraperitoneal, once daily for nine days
Experimental: (§1) The efficacy of the compounds of this invention against transplanted mouse tumors was evaluated in test systems which are used by the National Cancer Institute for the detection and assessment of anticancer activity. […] J. Cancer, 17, 129-142, (1981); Venditti, J. M., Seminars in Oncology, 8(4)(1981); Goldin, A. and J. M. Venditti in Recent Results in Cancer Research, 70, S. K. Carter and Y. Sakurai, Eds., Springer-Verlag, Berlin/Heidelberg, 1980].
The L1210 tumor line originated in 1948 as a lymphocytic leukemia in a female DBA/2 mouse after the skin was treated with 0.2% 20-methylcholanthrene in ethyl ether. The tumor line is maintained by serial passage in female DBA/2 mice.
On day, 0, female CDF1 mice weighing 18-22 g are inoculated with 1×10^5 L1210 leukemia cells harvested from the ascites of DBA/2 mice. The mice are randomized into groups of six each and the test compounds and vehicle control are administered intraperitoneally once daily for nine consecutive days beginning on day 1. A ≥20% decrease in body weight on day 5 is considered an indication of toxicity. The acceptable control mean survival time is 8-11 days.
Results are expressed as percentage of the mean survival time of the vehicle-treated control group according to the formula: [formula] Mice which survive for 30 days are considered cured and are not included in the calculation of the mean survival time.
The NCI criteria for activity is used. A compound is considered to have moderate activity against L1210 leukemia if it has a % T/C≥125%, and it is considered to have good activity against L1210 leukemia if it has a % T/C≥150%.

[1] = system: human melanoma RPMI-7272 cells; test: In Vitro RPMI-7272 Human Melanoma Test; assay type: cell-based; details: 72 hours after addition of compound, read-out: ID50 (dose required to inhibit the number of cell doublings by 50%)
Experimental: The compounds of this invention were also tested for their ability to inhibit the growth of human melanoma RPMI-7272 cells in vitro.
Cells are seeded at 3×10^5 per 35 mm plate to initiate growth inhibition studies. Cultures to receive growth medium only (control cultures) are set up in quadruplicate; cultures to receive varying concentrations of compounds are set up at one dish per dose of compound. Twenty-four hours post-seeding, duplicate control cell cultures are trypsinized and cells are counted using a Coulter Counter (day 1 control counts). At this time, varying concentrations of test compounds, from 100 to 0.00001 μg/mL are added to cultures and growth medium only is added to control cultures. Seventy-two hours after the addition of compound, cells are trypsinized and counted. The numbers of cell population doublings (day 4) in the presence or absence of compound are calculated.
Compounds are dissolved at 10-25 mg/mL in dimethylsulfoxide. Dilutions to 1 mg/mL in complete growth medium are made, followed by stock preparations of 100 and 30 μg/mL in complete growth medium. Serial ten-fold dilutions in complete medium are formulated from the 100 and 30 μg/mL stocks, respectively, and added to cultures.

B16 melanoma = test: B16 Murine Melanoma Test; assay type: in vivo, mouse; details: intraperitoneal, once daily for nine days
Experimental: as §1
The B16 tumor line arose spontaneously in 1954 on the skin at the base of the ear of a C57BL mouse. The tumor line is maintained by serial passage in female C57BL mice.
On day 0, female B6C3F1 mice are inoculated intraperitoneally with 0.5 mL of a 10% tumor brei. This brei is prepared by homogenizing fresh B16 tumors, grown subcutaneously in C57BL mice, in cold physiological saline. Mice are randomized in groups of ten each, with 20 animals being in the control group. The test compounds and vehicle control are administered intraperitoneally once daily for nine consecutive days beginning on day 1. A ≥20% decrease in body weight on day 5 is considered an indication of toxicity. The acceptable mean control survival time is 14-22 days. Results are expressed as a percentage of the mean survival time of the vehicle-treated control group according to the formula: [formula] […]

[2] = system: DLD-2 human colon carcinoma xenograft; test: DLD-2 Human Colon Carcinoma Xenograft Test; assay type: in vivo, human tumor in athymic (NU/NU) mice; details: dose 50 mg/kg, intraperitoneal, once daily for nine days
Experimental: as §1
The DLD-2 tumor line was orignally obtained from a primary colon carcinoma surgically removed from a patient. The line is maintained by serial passage in athymic nude mice.
On day 0, male and female outbred Swiss mice bearing the NU/NU gene and weighing 22-30 g are inoculated with 0.2 mL of a 25% tumor mince. […] Tumor measurements and weights are recorded once a week. […]
The efficacy of the test compounds is determined by the extent of tumor growth inhibition in treated versus vehicle-treated control mice. Initial tumor weights (mg) are calculated from the tumor dimensions (mm) using the formula for the volume of a prolate ellipsoid (L×W^2 /2). Net tumor weights are calculated for each of the treated groups and the vehicle-treated control group by subtracting the initial tumor weight (estimated) from the final tumor weight (actual) on day 19. […] Results are expressed as percent inhibition of control growth according to the formula: [formula] […]

Compound | % T/C (mean survival time, percentage of vehicle-treated control) (L1210 leukemia; dose 100 mg/kg) [%] | IC50 [1] [µg/mL] | % T/C (mean survival time, percentage of vehicle-treated control) (B16 melanoma; dose 35 mg/kg) [%] | % Inhibition (tumor growth) [2] [%] | % T/C (mean survival time, percentage of vehicle-treated control) (B16 melanoma; dose 50 mg/kg) [%] | % T/C (mean survival time, percentage of vehicle-treated control) (L1210 leukemia; dose 50 mg/kg) [%]
O=C(O)c1c2c(nc3ccccc13)-c1ccc(-c3ccccc3)cc1CC2 [Example 1, 5,6-Dihydro-3-phenylbenz[c]acridine-7-carboxylic acid] | 178 | 14.1 (≈ 40.1 µM) |  |  |  | 
O=C(O)c1c2c(nc3ccc(F)cc13)-c1ccc(-c3ccccc3)cc1CC2 [Example 3, 5,6-Dihydro-9-fluoro-3-phenylbenz[c]acridine-7-carboxylic acid] | 180 | 0.05 (≈ 0.135 µM) | 134 | 70 |  | 
O=C([O-])c1c2c(nc3ccc(F)cc13)-c1ccc(-c3ccccc3)cc1CC2.[Na+] [Example 12, 5,6-Dihydro-9-fluoro-3-phenylbenz[c]acridine-7-carboxylic acid, sodium salt] |  | 0.06 |  |  | 140 | 171
O=C(O)c1c2c(nc3ccccc13)-c1cc3sc4ccccc4c3cc1CC2 [Example 24] |  | 1.96 (≈ 5.14 µM) |  |  |  | 
O=C(O)c1c2c(nc3ccc(F)cc13)-c1cc3sc4ccccc4c3cc1CC2 [Example 27, 6,7-Dihydro-3-fluoro[1]-benzothieno[2',3':4,5]benz[1,2-c]acridine-5-carboxylic acid] | 149 | 1.4 (≈ 3.5 µM) |  |  |  | 
